Patent US20090053154A1, “MIXTURES OF ETHYLHEXYL P-METHOXYCINNAMATE AND ETHYLHEXYL SALICYLATE” (SYMRISE GmbH & Co. KG, priority 2005, published 2009)
Where two headings read alike, the source gives them in different places.

Key:
[1] = cited from earlier work
[2] = emulsion containing 5 wt. % of EHMC; cited from earlier work
[3] = Specific extinction E 1%/1 cm of the UV filter; assay type: physicochemical; details: EHS versus EHMC
Excerpt: 2-Ethylhexyl p-methoxycinnamate (ethylhexyl p-methoxycinnamate, CAS no.: 5466-77-3; USAN: Octinoxate, Neo Heliopan® AV (Symrise trade mark); hereafter abbreviated to EHMC) is a liquid, oil-soluble UV-B filter with a specific extinction E 1%/1 cm at 308 nm of approx. 850 (cf. H&R Contact no. 51, January 1991, pages 3-8). 2-Ethylhexyl p-methoxycinnamate is also frequently abbreviated to octyl methoxycinnamate (OMC) in the literature.
2-Ethylhexyl salicylate (CAS no.: 118-60-5; USAN: Octisalate, Neo Heliopan® OS (Symrise trade mark); hereafter abbreviated to EHS) is likewise a liquid, oil-soluble UV-B filter with a specific extinction E 1%/1 cm at 305 nm of approx. 180 (cf. H&R Contact no. 51, January 1991, pages 3-8). The specific extinction of EHS is lower than that of EHMC by a factor of about 5.
The specific extinction of UV filters is of primary importance as an index for assessing the efficacy in respect of the achievable light protection factor (LPF, hereafter also SPF (sun protection factor)). […] The light protection factor of a (light protection) formulation is a measure of the UV-B protection it can achieve. The absolute SPF values also depend within certain limits on the cosmetic base formulation used.

specific extinction lower than that of EHMC by a factor [3] | Structure (SMILES) | specific extinction E 1%/1 cm ([1]; at 308 nm) | SPF (in vitro measurement) [2] | specific extinction E 1%/1 cm ([1]; at 305 nm)
– | CCCCC(CC)COC(=O)C=Cc1ccc(OC)cc1 (stereo not shown) [EHMC, 2-Ethylhexyl p-methoxycinnamate] | approx. 850 | 10.1 | –
about 5 | CCCCC(CC)COC(=O)c1ccccc1O (stereo not shown) [EHS, 2-Ethylhexyl salicylate] | – | – | approx. 180
